± gives the standard deviation of the averaged measurements.
Tests used:
SORAFENIB = compound: CNC(=O)c1cc(Oc2ccc(NC(=O)Nc3ccc(Cl)c(C(F)(F)F)c3)cc2)ccn1 [SORAFENIB]; assay: surviving fraction relative to DMSO-only wells; higher = less growth inhibition; conditions: exposure time: 5 days
Method in brief: (§1)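 Surviving fraction was calculated by normalising CellTiter-Glo luminescence to the median of DMSO-only wells. Tumour cell lines in log phase were seeded in 384-well plates at 250–500 cells per well, and 24 hours later were exposed continuously for five days to inhibitors at 0.5, 1, 5, 10, 50, 100, 500 and 1000 nM.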

[1] = compound: COc1cc2ncnc(Nc3ccc(F)c(Cl)c3)c2cc1NC(=O)/C=C/CN1CCCCC1; assay: as above; conditions: exposure time: 5 days
Method in brief: as §1

Test System | surviving fraction (SORAFENIB; 0.5 nM) | surviving fraction (SORAFENIB; 1 nM) | surviving fraction (SORAFENIB; 5 nM) | surviving fraction (SORAFENIB; 10 nM) | surviving fraction (SORAFENIB; 50 nM) | surviving fraction (SORAFENIB; 500 nM) | surviving fraction (SORAFENIB; 1000 nM) | surviving fraction ([1]; 0.5 nM) | surviving fraction ([1]; 1 nM) | surviving fraction ([1]; 5 nM) | surviving fraction ([1]; 10 nM) | surviving fraction ([1]; 50 nM) | surviving fraction ([1]; 100 nM) | surviving fraction ([1]; 500 nM) | surviving fraction ([1]; 1000 nM) | surviving fraction (SORAFENIB; 100 nM)
BT549 BREAST | 1.2 ± 0.1 | 1.11 ± 0.17 | 1.037 ± 0.01 | 1.15 ± 0.068 | 1.07 ± 0.081 | 1.09 ± 0.11 | 1.11 ± 0.16 | 0.991 ± 0.049 | 1.1 ± 0.15 | 1.02 ± 0.17 | 1.06 ± 0.13 | 1 ± 0.037 | 0.927 ± 0.14 | 0.727 ± 0.058 | 0.473 ± 0.08 | 
MDAMB231 BREAST | 0.99 ± 0.025 | 0.995 ± 0.014 | 0.924 ± 0.036 | 0.905 ± 0.014 | 0.887 ± 0.014 |  | 0.929 ± 0.016 | 1.03 ± 0.024 | 1.02 ± 0.024 | 1.05 ± 0.019 | 1.047 ± 0.01 | 1.02 ± 0.035 | 1 ± 0.024 | 0.692 ± 0.022 | 0.488 ± 0.039 | 0.936 ± 0.05
SG27 HEADNECK | 1.04 ± 0.056 | 1.01 ± 0.059 | 1.18 ± 0.041 | 1.13 ± 0.074 | 1.03 ± 0.04 | 1.27 ± 0.045 | 1.3 ± 0.051 | 1.06 ± 0.071 | 1.16 ± 0.22 | 0.944 ± 0.14 | 0.937 ± 0.07 | 0.927 ± 0.014 | 1.01 ± 0.061 | 0.988 ± 0.015 | 0.864 ± 0.024 | 1.22 ± 0.1
SYO1 SYNOVIAL | 0.9613 ± 0.0017 | 1.02 ± 0.023 | 1.02 ± 0.045 | 0.981 ± 0.017 | 0.968 ± 0.025 |  | 0.679 ± 0.022 | 0.9794 ± 0.0088 | 0.993 ± 0.068 | 0.91 ± 0.023 | 0.929 ± 0.048 | 0.971 ± 0.055 | 0.974 ± 0.039 | 0.784 ± 0.018 | 0.422 ± 0.022 | 0.912 ± 0.033
HUO3N1 BONE | 1 ± 0.053 |  |  | 1 ± 0.036 | 1.004 ± 0.01 | 0.818 ± 0.029 | 0.82 ± 0.017 | 1.03 ± 0.037 | 0.983 ± 0.057 | 1.06 ± 0.065 | 1 ± 0.016 | 1.07 ± 0.073 | 1.03 ± 0.059 | 0.789 ± 0.018 | 0.629 ± 0.032 | 0.941 ± 0.04
NCIH441 LUNG | 1.12 ± 0.014 | 1.07 ± 0.028 | 1.12 ± 0.12 | 0.967 ± 0.042 | 0.992 ± 0.023 | 0.927 ± 0.04 | 0.834 ± 0.016 | 1.08 ± 0.13 | 1.04 ± 0.041 | 1.05 ± 0.073 | 1.06 ± 0.04 | 0.981 ± 0.038 | 0.859 ± 0.12 | 0.689 ± 0.051 | 0.5 ± 0.013 | 0.99 ± 0.12
ASKA SYNOVIAL | 1.12 ± 0.019 | 1.07 ± 0.063 | 1.18 ± 0.024 | 1.12 ± 0.028 | 1.15 ± 0.031 | 1.01 ± 0.023 | 0.954 ± 0.045 | 1.11 ± 0.094 | 1.23 ± 0.051 | 1.15 ± 0.038 | 1.24 ± 0.14 | 1.3 ± 0.068 | 1.29 ± 0.04 | 0.959 ± 0.021 | 1.12 ± 0.019 | 1.15 ± 0.014
PCI30 HEADNECK | 1.04 ± 0.038 |  | 1.02 ± 0.045 | 1.04 ± 0.06 | 1.06 ± 0.098 | 1.11 ± 0.059 | 1.12 ± 0.013 | 0.985 ± 0.029 | 1.01 ± 0.087 | 0.649 ± 0.07 | 0.551 ± 0.078 | 0.393 ± 0.01 | 0.392 ± 0.013 | 0.194 ± 0.035 | 0.0737 ± 0.0085 | 1.11 ± 0.096
T47D BREAST | 1.083 ± 0.01 | 1.02 ± 0.028 | 1.07 ± 0.053 | 1.02 ± 0.046 | 1.14 ± 0.029 | 1.149 ± 0.0045 | 1.12 ± 0.039 | 1.03 ± 0.044 | 1.11 ± 0.045 | 1.07 ± 0.041 | 1.04 ± 0.027 | 1.043 ± 0.0096 | 1.07 ± 0.034 | 1.05 ± 0.05 | 1.02 ± 0.046 | 1.13 ± 0.018
HCT15 LARGE INTESTINE | 0.955 ± 0.029 | 0.989 ± 0.0099 | 0.99 ± 0.026 | 0.982 ± 0.021 | 1.09 ± 0.052 |  | 1.06 ± 0.035 | 1.03 ± 0.044 | 1.09 ± 0.06 | 1.05 ± 0.043 | 1.06 ± 0.069 | 1.02 ± 0.033 | 1.06 ± 0.031 | 1.03 ± 0.088 | 0.821 ± 0.057 | 1.09 ± 0.064
HCC1954 BREAST | 1.11 ± 0.15 |  | 1.02 ± 0.077 | 0.93 ± 0.27 | 1.22 ± 0.11 | 1.3 ± 0.1 | 1.33 ± 0.14 | 1.11 ± 0.075 | 0.808 ± 0.064 | 0.756 ± 0.028 | 0.722 ± 0.084 | 0.508 ± 0.0074 | 0.471 ± 0.0092 | 0.283 ± 0.013 | 0.155 ± 0.018 | 1.29 ± 0.039
HSSYII SYNOVIAL | 1 ± 0.059 | 0.975 ± 0.026 | 0.977 ± 0.038 | 0.942 ± 0.035 | 0.947 ± 0.037 | 0.855 ± 0.035 | 0.779 ± 0.038 | 0.98 ± 0.031 | 0.942 ± 0.038 | 0.966 ± 0.054 | 0.942 ± 0.03 | 0.928 ± 0.059 | 0.927 ± 0.045 | 0.715 ± 0.041 | 0.495 ± 0.0068 | 1.01 ± 0.024
MFM223 BREAST | 1.18 ± 0.021 | 1.16 ± 0.048 | 1.23 ± 0.08 | 1.15 ± 0.047 | 1.23 ± 0.13 | 1.06 ± 0.13 | 0.742 ± 0.08 | 1.094 ± 0.01 | 1.09 ± 0.042 | 1.14 ± 0.073 | 1.15 ± 0.072 | 1.2 ± 0.078 | 1.19 ± 0.06 | 0.914 ± 0.06 | 0.587 ± 0.055 | 1.14 ± 0.081
MDAMB468 BREAST | 1 ± 0.083 |  | 1.15 ± 0.062 | 1.09 ± 0.072 | 1.28 ± 0.073 | 1.23 ± 0.029 | 1.21 ± 0.051 | 0.997 ± 0.094 | 1.04 ± 0.033 | 0.8783 ± 0.0035 | 0.854 ± 0.063 | 0.626 ± 0.013 | 0.676 ± 0.035 | 0.438 ± 0.016 | 0.286 ± 0.014 | 1.26 ± 0.12
CHLA90 AUTONOMIC GANGLIA | 0.992 ± 0.05 | 1.04 ± 0.039 |  | 0.996 ± 0.037 | 1.13 ± 0.037 | 1.38 ± 0.1 | 1.5 ± 0.12 | 1 ± 0.048 | 0.982 ± 0.085 | 0.853 ± 0.049 | 0.834 ± 0.016 | 0.818 ± 0.023 | 0.769 ± 0.048 | 0.781 ± 0.04 | 0.596 ± 0.022 | 1.27 ± 0.062
HCC78 LUNG | 0.864 ± 0.17 | 0.826 ± 0.023 |  | 0.877 ± 0.085 | 1.02 ± 0.053 | 0.509 ± 0.068 | 0.435 ± 0.098 | 0.902 ± 0.2 | 0.733 ± 0.13 | 0.87 ± 0.051 | 0.827 ± 0.21 | 0.749 ± 0.12 | 0.857 ± 0.086 | 0.595 ± 0.23 | 0.447 ± 0.02 | 
HT1080 SOFT TISSUE | 1.04 ± 0.057 | 1.05 ± 0.036 | 1.04 ± 0.035 | 1.02 ± 0.014 | 1.023 ± 0.005 | 1.05 ± 0.09 | 1.01 ± 0.031 | 1.02 ± 0.015 | 1.01 ± 0.023 | 0.964 ± 0.0098 | 0.984 ± 0.026 | 1.03 ± 0.015 | 0.981 ± 0.034 | 0.9 ± 0.04 | 0.751 ± 0.045 | 1.01 ± 0.028

Reference: the supplement of paper PMC6045584
